# Active and inactive are the calls of the source. The calls are words filed in the database; no cut-off is given here.
# Experiments:
# Cryptococcus neoformans [1] = test: Antifungal activity against Cryptococcus neoformans clinical isolate HN2 assessed as fungal growth inhibition incubated for 72 hrs in presence of P163-0892 by broth microdilution method; format: functional
# Cryptococcus neoformans [2] = test: Antifungal activity against Cryptococcus neoformans clinical isolate HN17 assessed as fungal growth inhibition incubated for 72 hrs in presence of P163-0892 by broth microdilution method; format: functional
# [3] = tested on: Cryptococcus gattii species complex; test: Synergistic antifungal activity against Cryptococcus gattii E566 assessed as fractional inhibitory concentration index incubated for 72 hrs in presence of P163-0892 by broth microdilution method; format: functional
# [4] = tested on: Cryptococcus gattii species complex; test: Antifungal activity against Cryptococcus gattii clinical isolate SCZ20024 assessed as fungal growth inhibition incubated for 72 hrs in presence of P163-0892 by broth microdilution method; format: functional
# Cryptococcus neoformans [5] = test: Synergistic antifungal activity against Cryptococcus neoformans clinical isolate SH68 assessed as fractional inhibitory concentration index incubated for 72 hrs in presence of P163-0892 by broth microdilution method; format: functional
# Cryptococcus neoformans [6] = test: Antifungal activity against Cryptococcus neoformans clinical isolate HN15 assessed as fungal growth inhibition incubated for 72 hrs in presence of P163-0892 by broth microdilution method; format: functional
# Cryptococcus neoformans [7] = test: Synergistic antifungal activity against Cryptococcus neoformans clinical isolate 444 assessed as fractional inhibitory concentration index incubated for 72 hrs in presence of P163-0892 by broth microdilution method; format: functional
# Cryptococcus neoformans [8] = test: Synergistic antifungal activity against Cryptococcus neoformans clinical isolate HN2 assessed as fractional inhibitory concentration index incubated for 72 hrs in presence of P163-0892 by broth microdilution method; format: functional
# Cryptococcus neoformans [9] = test: Synergistic antifungal activity against Cryptococcus neoformans H99 assessed as fractional inhibitory concentration index incubated for 72 hrs in presence of P163-0892 by broth microdilution method; format: functional
# Candida albicans [10] = test: Antifungal activity against Candida albicans SC5314 assessed as fungal growth inhibition incubated for 48 hrs in presence of P163-0892 by broth microdilution method; format: functional
# Cryptococcus neoformans [11] = test: Antifungal activity against Cryptococcus neoformans clinical isolate HN2-40 assessed as fungal growth inhibition incubated for 72 hrs in presence of P163-0892 by broth microdilution method; format: functional
# Cryptococcus neoformans [12] = test: Synergistic antifungal activity against Cryptococcus neoformans clinical isolate 444 assessed as fractional inhibitory concentration index incubated for 72 hrs in presence of Fluconazole by broth microdilution method; format: functional
# [13] = MRT (0 to t) in Sprague-Dawley rat at 5 mg/kg,po by LC-MS/MS analysis; format: ADME, organism-based; details: in vivo
# [14] = C0 in Sprague-Dawley rat at 2 mg/kg,iv by LC-MS/MS analysis; format: ADME, organism-based; details: in vivo
# [15] = AUC (0 to infinitive) in Sprague-Dawley rat at 2 mg/kg,iv by LC-MS/MS analysis; format: ADME, organism-based; parameters: time infinity, dose 2 mg/kg, route iv; details: in vivo
# [16] = tested on: Cryptococcus deuterogattii; test: Antifungal activity against Cryptococcus gattii WM178 assessed as reduction on fungal growth at 2 ug/ml incubated for 48 hrs by plate reader assay; format: functional, Cryptococcus gattii species complex; parameters: scale not given: the % may be the effect or the level left; details: dose 2 µg/ml
# [17] = Cytotoxicity against rabbit RBC assessed as cell growth inhibition incubated for 24 hrs by CCK-8 assay; format: toxicity, cell-based, Oryctolagus cuniculus, Erythrocyte; details: red blood cells
# Cryptococcus neoformans [18] = test: Synergistic antifungal activity against Cryptococcus neoformans clinical isolate BJ3 assessed as fractional inhibitory concentration index incubated for 72 hrs in presence of Fluconazole by broth microdilution method; format: functional
# Pichia kudriavzevii [19] = test: Antifungal activity against Candida krusei ATCC2340 assessed as fungal growth inhibition incubated for 48 hrs in presence of Fluconazole by broth microdilution method; format: functional
# [20] = biological target: Voltage-gated inwardly rectifying potassium channel KCNH2 (Homo sapiens, UniProt Q12809); test: Inhibition of human […] potassium channel by automated patch clamp electrophysiology; format: toxicity
# Candida albicans [21] = test: Antifungal activity against Candida albicans SC5314 assessed as fungal growth inhibition incubated for 48 hrs in presence of Fluconazole by broth microdilution method; format: functional
# Cryptococcus neoformans [22] = test: Synergistic antifungal activity against Cryptococcus neoformans clinical isolate HN19 assessed as fractional inhibitory concentration index incubated for 72 hrs in presence of Fluconazole by broth microdilution method; format: functional
# Cryptococcus gattii = test: Synergistic antifungal activity against Cryptococcus gattii WM179 assessed as fractional inhibitory concentration index incubated for 72 hrs in presence of Fluconazole by broth microdilution method; format: functional, Cryptococcus gattii species complex
# Candida parapsilosis = test: Antifungal activity against Candida parapsilosis ATCC22019 assessed as fungal growth inhibition incubated for 48 hrs in presence of Fluconazole by broth microdilution method; format: functional; details: Lodderomyces parapsilosis
# Candida albicans [23] = test: Synergistic antifungal activity against Candida albicans SC5314 assessed as fractional inhibitory concentration index incubated for 48 hrs in presence of Fluconazole by broth microdilution method; format: functional
# Cryptococcus neoformans [24] = test: Antifungal activity against Cryptococcus neoformans clinical isolate 443 assessed as fungal growth inhibition incubated for 72 hrs in presence of Fluconazole by broth microdilution method; format: functional
# [25] = Cmax in Sprague-Dawley rat at 5 mg/kg,po by LC-MS/MS analysis; format: ADME, organism-based; parameters: dose 5 mg/kg, route po; details: in vivo
# [26] = MRT (0 to t) in Sprague-Dawley rat at 2 mg/kg,iv by LC-MS/MS analysis; format: ADME, organism-based; details: in vivo
# [27] = Selectivity index, ratio of IC50 for human HUVEC to MIC for antifungal activity against Cryptococcus neoformans; format: toxicity; details: HUVEC cells, read-out: Selectivity Index
# Cryptococcus neoformans [28] = test: Antifungal activity against Cryptococcus neoformans H99 assessed as fungal growth inhibition incubated for 72 hrs in presence of Fluconazole by broth microdilution method; format: functional
# Pichia kudriavzevii [29] = test: Synergistic antifungal activity against Candida krusei ATCC2340 assessed as fractional inhibitory concentration index incubated for 48 hrs in presence of Fluconazole by broth microdilution method; format: functional
# Cryptococcus neoformans [30] = test: Antifungal activity against Cryptococcus neoformans clinical isolate BJ3 assessed as fungal growth inhibition incubated for 72 hrs in presence of Fluconazole by broth microdilution method; format: functional
# Cryptococcus neoformans [31] = test: Synergistic antifungal activity against Cryptococcus neoformans clinical isolate HN1 assessed as fractional inhibitory concentration index incubated for 72 hrs in presence of Fluconazole by broth microdilution method; format: functional
# Cryptococcus neoformans [32] = test: Synergistic antifungal activity against Cryptococcus neoformans clinical isolate 445 assessed as fractional inhibitory concentration index incubated for 72 hrs in presence of Fluconazole by broth microdilution method; format: functional
# Cryptococcus neoformans [33] = test: Antifungal activity against Cryptococcus neoformans clinical isolate HN1 assessed as fungal growth inhibition incubated for 72 hrs in presence of Fluconazole by broth microdilution method; format: functional
# [Candida] auris = Antifungal activity against Candida auris CBS 12372 assessed as fungal growth inhibition incubated for 48 hrs in presence of Fluconazole by broth microdilution method; format: functional; details: Candidozyma auris
# [34] = Selectivity index, ratio of IC50 for rabbit RBC to MIC for antifungal activity against Cryptococcus neoformans; format: toxicity; details: red blood cells, read-out: Selectivity Index
# [35] = tested on: Cryptococcus deuterogattii; test: Antifungal activity against Cryptococcus gattii WM178 assessed as reduction on fungal growth at 8 ug/ml incubated for 48 hrs by plate reader assay; format: functional, organism-based; details: Cryptococcus gattii species complex, dose 8.0 µg/ml
# Cryptococcus neoformans [36] = test: Synergistic antifungal activity against Cryptococcus neoformans clinical isolate 56992 assessed as fractional inhibitory concentration index incubated for 72 hrs in presence of Fluconazole by broth microdilution method; format: functional
# [37] = tested on: Cryptococcus deuterogattii; test: Antifungal activity against Cryptococcus gattii WM178 assessed as fungal growth inhibition incubated for 72 hrs in presence of Fluconazole by broth microdilution method; format: functional, Cryptococcus gattii species complex
# Voltage-gated inwardly rectifying potassium channel KCNH2, sequence (Q12809 whole entry): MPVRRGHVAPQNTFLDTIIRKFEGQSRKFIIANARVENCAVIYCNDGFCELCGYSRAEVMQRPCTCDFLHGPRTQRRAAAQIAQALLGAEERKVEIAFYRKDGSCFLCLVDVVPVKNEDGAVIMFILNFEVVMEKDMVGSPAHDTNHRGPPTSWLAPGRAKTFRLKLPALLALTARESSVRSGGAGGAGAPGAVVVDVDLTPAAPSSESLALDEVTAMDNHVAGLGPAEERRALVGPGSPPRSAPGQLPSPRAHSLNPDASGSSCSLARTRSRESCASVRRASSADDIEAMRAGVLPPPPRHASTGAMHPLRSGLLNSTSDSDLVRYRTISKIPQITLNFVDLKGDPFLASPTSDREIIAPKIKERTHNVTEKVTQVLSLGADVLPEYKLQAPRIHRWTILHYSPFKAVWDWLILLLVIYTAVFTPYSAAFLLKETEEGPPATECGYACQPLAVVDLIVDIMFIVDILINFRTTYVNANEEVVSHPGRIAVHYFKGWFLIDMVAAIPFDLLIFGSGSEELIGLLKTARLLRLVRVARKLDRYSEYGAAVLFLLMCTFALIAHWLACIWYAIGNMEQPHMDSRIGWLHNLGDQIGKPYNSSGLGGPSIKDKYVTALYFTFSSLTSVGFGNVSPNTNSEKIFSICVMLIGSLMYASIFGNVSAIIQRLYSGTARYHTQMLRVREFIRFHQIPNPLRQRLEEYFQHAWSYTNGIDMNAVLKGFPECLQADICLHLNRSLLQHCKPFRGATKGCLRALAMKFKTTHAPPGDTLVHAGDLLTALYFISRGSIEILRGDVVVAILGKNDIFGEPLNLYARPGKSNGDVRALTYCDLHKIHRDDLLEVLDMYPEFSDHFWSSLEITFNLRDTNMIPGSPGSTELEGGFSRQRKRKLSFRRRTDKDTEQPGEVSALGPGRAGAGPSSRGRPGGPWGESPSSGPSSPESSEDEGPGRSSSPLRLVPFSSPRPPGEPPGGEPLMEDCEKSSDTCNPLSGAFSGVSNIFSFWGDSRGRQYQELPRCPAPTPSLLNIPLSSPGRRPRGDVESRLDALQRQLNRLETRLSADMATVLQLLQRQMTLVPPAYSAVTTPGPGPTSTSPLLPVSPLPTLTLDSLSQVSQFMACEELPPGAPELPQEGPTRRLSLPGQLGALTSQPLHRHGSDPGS
smiles,measurement,setting,value
OC(Cn1cncn1)(Cn1cncn1)c1ccc(F)cc1F [FLUCONAZOLE],MIC,Cryptococcus neoformans [1],0.25 µg/mL
same,MIC,Cryptococcus neoformans [2],0.5 µg/mL
same,fractional inhibitory concentration index (FICI),[3],0.188
same,MIC,[4],1 µg/mL
same,fractional inhibitory concentration index (FICI),Cryptococcus neoformans [5],0.25
same,MIC,Cryptococcus neoformans [6],1 µg/mL
same,fractional inhibitory concentration index (FICI),Cryptococcus neoformans [7],0.156
same,fractional inhibitory concentration index (FICI),Cryptococcus neoformans [8],0.188
same,fractional inhibitory concentration index (FICI),Cryptococcus neoformans [9],0.375
same,MIC,Candida albicans [10],1 µg/mL
same,MIC,Cryptococcus neoformans [11],0.125 µg/mL
CCCCNC(=O)c1c(O)c2sccc2n(Cc2ccccc2)c1=O,fractional inhibitory concentration index (FICI),Cryptococcus neoformans [12],0.156
same,MRT last,[13],3.83 h
same,C0,[14],2460 ng/mL
same,AUC,[15],749 ng·h/mL
same,Activity,[16],45.5%
same,IC50 at 24 h,[17],> 256 µg/mL
same,fractional inhibitory concentration index (FICI),Cryptococcus neoformans [18],0.188
same,MIC,Pichia kudriavzevii [19],8 µg/mL
same,IC50,[20],23.4 µM
same,MIC,Candida albicans [21],1 µg/mL
same,fractional inhibitory concentration index (FICI),Cryptococcus neoformans [22],0.281
same,fractional inhibitory concentration index (FICI),Cryptococcus gattii,0.25
same,MIC,Candida parapsilosis,16 µg/mL
same,fractional inhibitory concentration index (FICI),Candida albicans [23],1.008
same,MIC,Cryptococcus neoformans [24],0.0313 µg/mL
same,Cmax,[25],2.97 ng/mL
same,MRT(t),[26],2.63 h
same,selectivity ratio,[27],> 256
same,MIC,Cryptococcus neoformans [28],0.0625 µg/mL
same,fractional inhibitory concentration index (FICI),Pichia kudriavzevii [29],0.563
same,MIC,Cryptococcus neoformans [30],0.0313 µg/mL
same,fractional inhibitory concentration index (FICI),Cryptococcus neoformans [31],0.125
same,fractional inhibitory concentration index (FICI),Cryptococcus neoformans [32],0.375
same,MIC,Cryptococcus neoformans [33],0.0313 µg/mL
same,MIC,[Candida] auris,1 µg/mL
same,selectivity ratio,[34],> 256
same,Activity,[35],Active
same,fractional inhibitory concentration index (FICI),Cryptococcus neoformans [36],0.25
same,MIC,[37],0.0625 µg/mL
